The source of these data is patent publication US20220380357A1, “TETRAHYDROISOQUINOLINE COMPOUNDS” (ALLINKY BIOPHARMA, priority 2019, published 2022).

The structures appear in SMILES notation.

Series [1] relates to H358. non-small cell lung cancer line bearing KRas^G12C oncogenic mutation. The series can be described thus: Antiproliferative MTS assay, H358 cells. Conditions: Homo sapiens, NCI-H358, 72 h, compounds 1-23, 47-52 and Reference Example 1 median of experiments, 24-46 estimations and/or preliminary results, read-out: IC50 values: cell proliferation inhibition, H358. It counts as cell-based. How it is done: Cell line #2: H358. non-small cell lung cancer line bearing KRas^G12C oncogenic mutation
(§1) Cell lines were cultured in DMEM or RPMI-1640 supplemented with FBS 10%. In order to assess the antiproliferative effect of compounds, cells were seeded at a density of 1.8×10^3, 6.2×10^3, 7.8×10^3, 21×10^3 and 2×10^3 cells/cm^2, respectively, in tissue culture microplates and were incubated in humidified atmosphere at 5% CO2. 24 h later, compounds dissolved in DMSO 100% were added for different final concentrations ranging between 0.1 and 50 μM for a final DMSO concentration of 0.5% and the plates were incubated for another 72 h. After incubation, proliferation was quantified using CellTiter 96® Aqueous Non-Radioactive Cell Proliferation Assay-MTS (Promega #G5421) following manufacturer instructions. Amount of 490 nm absorbance is directly proportional to the number of living cells. Absorbance was recorded with a BMG Fluostar Optima Microplate Reader and normalized to control with vehicle.

Series [2] concerns PANC-1. epithelioid carcinoma of the pancreas cell line bearing KRas^G12D oncogenic mutation. The series can be described thus: Antiproliferative MTS assay, PANC-1 cells. Type of series: cell-based. As to conditions: Homo sapiens, PANC-1, 72 h, compounds 1-23 and 47-52 median of experiments, 24-46 estimations and/or preliminary results, read-out: IC50 values: cell proliferation inhibition, Panc-1. How it is done:
Cell line #3: PANC-1. epithelioid carcinoma of the pancreas cell line bearing KRas^G12D oncogenic mutation
as §1

The subject of series [3] is RPMI. myeloma cell line bearing KRas^G12A oncogenic mutation. The series can be described thus: Antiproliferative MTS assay, RPMI cells. As to conditions: 72 h, compounds 1-23 and 47-52 median of experiments, 24-46 estimations and/or preliminary results, read-out: IC50 values: cell proliferation inhibition, RPMI. Type of series: cell-based. The protocol: Cell line #4: RPMI. myeloma cell line bearing KRas^G12A oncogenic mutation
as §1

Series [4] relates to A549. Lung carcinoma cell line bearing KRas^G12S oncogenic mutation. Put plainly: Antiproliferative MTS assay, A549 cells. It counts as cell-based. As to conditions: Homo sapiens, A549, 72 h, compounds 1-23 and 47-52 median of experiments, 24-46 estimations and/or preliminary results, read-out: IC50 values: cell proliferation inhibition, A549. The protocol:
Cell line #1: A549. Lung carcinoma cell line bearing KRas^G12S oncogenic mutation
as §1

In another series the test system is NIH-H358 Cell Line. Put plainly: 3D CellTiter-Glo cell viability assay. Type of series: cell-based. Conditions: 168 h, NIH-H358 cells in 0.65% methylcellulose, 7 days' compound treatment. The protocol: Example 5: Efficacy Testing in 3D Viability Assay for NIH-H358 Cell Line
The protocol to perform 3D CellTiter-Glo™ cell viability assay is as follows:
Day—1: Cell plating • Adjust cell concentrations to 1×10^5 cells/ml with respective medium. (Cell concentration is adjusted according to data base or density optimization assay). Mix 3.5 mL of cell suspension 6.5 mL of 1% methylcellulose. Mix and wait for bubbles to disperse before pipetting. This step yields 10 ml of cell suspension in 0.65% methylcellulose solution. Add 99.5 μL cell suspensions to 96-well plates according to plate map with final cell density. • Two duplicate plates will be set up. One is for day 0 reading (T0) and the other will be cultured in incubator for reading at the end point. • Incubate the plates overnight in humidified incubator at 37° C. with 5% CO2.
Day 0: T0 plate reading and compound treatment • Take T0 plate, add 0.5 μL culture medium to each well for T0 reading. • Add 100 μl CellTiter-Glo® Reagent to each well. • Mix contents for 2 minutes on an orbital shaker to facilitate cell lysis. • Allow the plate to incubate at room temperature for 10 minutes to stabilize luminescent signal. • Record luminescence using EnVision Multi Label Reader. • Dilute the test articles at the concentration indicated at Test Articles Dilution. Add 0.5 μL of each 200× compound working solutions according to plate inoculation map.
Day 7: Plate reading of 7 days' compound treatment • Add 100 μL CellTiter-Glo® Reagent to each well. • Mix contents for 2 minutes on an orbital shaker to facilitate cell lysis. • Allow the plate to incubate at room temperature for 10 minutes to stabilize luminescent signal. • Record luminescence using EnVision Multi Label Reader.

The subject of series [5] is subcutaneous NCI-H358 Human Lung Cancer Model. The series can be described thus: Efficacy in xenograft studies (tumor growth inhibition). It counts as in vivo, NCr nude mice. As to conditions: for Oral anti-tumor activity: 20 mg/kg BID peroral, subcutaneous NCI-H358 xenograft; for TGI (tumor growth inhibition): NCI-H358 xenograft, NCr nude mice. The source says: (§2) Evaluation of the efficacy of compounds 6, 11 and 13 in the treatment of subcutaneous NCI-H358 Human Lung Cancer Model in NCr nude mice.
(§3) The treatment with compound 6 started when the tumors size reached 170 mm^3 (study 1). This value was 190 mm^3 in the case of compounds 11 and 13 (study 2).
Studies endpoints: The major endpoints of the study included the following:
Tumor growth inhibition (TGI): TGI(%) is an indication of antitumor effectiveness, and it is expressed as: TGI (%)=100×(1−T/C). T and C were the mean tumor volume of the treated and control groups, respectively, on a given day.

The nature of series [6]: Body weight and tolerability in xenograft studies. As to conditions: 20 mg/kg BID peroral, mice bearing NCI-H358 xenograft. It counts as in vivo.
Source text: as §2, §3
The results of the body weight changes in the tumor bearing mice are shown in FIG. 1 (p.o. is peroral; i.p. is intraperitoneal). The body weight of the animals at the end of the treatment with the three compounds was only slightly below the body weight of the respective vehicle control groups.

[7] abbreviates: Study 2: 20 mg/kg peroral BID × 27 days.

`CCNC(=O)N1CCc2cc(OC)c(OCCc3ccc(OC)c(N)c3)cc2C1c1ccc(C)cc1C` (stereo not drawn) [Compound 6, 7-(3-amino-4-methoxyphenethoxy)-1-(2,4-dimethylphenyl)-N-ethyl-6-methoxy-3,4-dihydroisoquinoline-2(1H)-carboxamide]: the IC50 in series [1] was 200 nM; in series [2], 200 nM; in series [3] it was 100 nM; in series [4] it was 600 nM; in the series on NIH-H358 Cell Line, 125 nM. For the same compound, the Oral anti-tumor activity entry in series [5] was “significant oral anti-tumor activities”. In series [5] (Study 1: 20 mg/kg peroral BID × 29 days), the “TGI (tumor growth inhibition)” value is listed as 27.09%. The “Tolerability / safety of dose” value in series [6] is “tolerate 20 mg/kg BID and safe”.

Regarding `CCNC(=O)N1CCc2cc(OC)c(OCCc3ccc(OC)c(N)c3)cc2C1c1ccc(OC)cc1C` (stereo not drawn) [Compound 11], the IC50 is 200 nM in series [1]; 200 nM in series [2]; 100 nM in series [3]; 800 nM in series [4]; 413 nM in the series on NIH-H358 Cell Line. Besides, the Oral anti-tumor activity result in series [5] was “significant oral anti-tumor activities”. Besides, the “TGI (tumor growth inhibition)” value in series [5] (setting [7]) is recorded as 48.22%. In addition, the “Tolerability / safety of dose” value in series [6] is “tolerate 20 mg/kg BID and safe”.

Take `CCNC(=O)N1CCc2cc(OC)c(OCCc3ccc(OC)c(N)c3)cc2C1c1ccc(Cl)cc1C` (stereo not drawn) [Compound 13]: the IC50 in series [1] is 300 nM; in series [2], 300 nM; in series [3] it was 100 nM; in series [4], 1000 nM; with NIH-H358 Cell Line, 147 nM. Further, the Oral anti-tumor activity result in series [5] was “significant oral anti-tumor activities”. Further, in series [5] (setting [7]), the “TGI (tumor growth inhibition)” value turned out to be 26.99%. Also, the “Tolerability / safety of dose” value in series [6] was “tolerate 20 mg/kg BID and safe”.
